Laboratory results published in US4175081A, “5-Substituted thiadiazole ureas” (priority 1977, dated 1979).

Columns and labels:
Bean (BN) [1] = assay: Pre-emergence herbicide test; assay type: in vivo, Phaseolus vulgaris var. Black Valentine; settings: Phaseolus vulgaris, 336 h, two weeks after treatment
How it was run: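 Black Valentine bean was seeded in potting soil one day before spraying. Compound was applied pre-emergence at 8 lbs/acre (also 4 lbs/acre) in 38 gallons per acre. Plants were sub-irrigated and injury or control was rated visually after two weeks.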

Amaranth pigweed (PW) = assay: Pre-emergence herbicide test; assay type: in vivo, Amaranthus retroflexus; settings: 336 h, two weeks after treatment
Procedure: All crop and weed species were planted individually in 3' plastic pots containing potting soil. Four seeds each of corn, cotton, and snapbeans were seeded to a depth equal to the diameter of the seed. All other species were surface seeded and sprinkled with screened soil in an amount sufficient to cover the seed. Immediately after planting, all pots were watered by sub-irrigation in greenhouse trays. Pots for the pre-emergence phase were seeded one day before treatment.
Compounds were tested at rates of application equivalent to 8 lbs. of actual compound per acre in a spray volume of 38 gallons per acre. Spray hood constants required to deliver the above volume are as follows:
Formulations for spray applications were prepared in 50 ml volumes with the following three components:
Formulations for the 4 lbs/acre rate were prepared by adjusting the amount of active ingredient accordingly.
Spray applications were made in a hood containing a removable belt and fixed spray nozzle. For passage through the spray hood, one pot of each specie (pre-emergence phase) was placed on the rear half of the flat. Treatments were removed to the greenhouse after spraying. Watering during the observation period was done only by sub-irrigation.
Two weeks after treatment, pre- and post-emergence injury or control was visually rated, and the results were as shown in the following tables. Pre-emergence data are provided in TABLE III and post-emergence data are provided in TABLE IV, for compounds having the formula illustrated in TABLE I. Correspondingly, pre-emergence and post-emergence data, respectively, are set forth in TABLES V AND VI, for compounds having the formula illustrated in TABLE II.

Cotton (CT) [2] = assay: Pre-emergence herbicide test; assay type: in vivo, Gossypium hirsutum var. DPL smooth leaf; settings: Gossypium hirsutum, 336 h, two weeks after treatment
How it was run: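 Crop and weed species seeded one day before treatment, then sprayed pre-emergence at 8 lbs actual compound per acre (also 4 lbs/acre formulations) in 38 gallons per acre. Pots kept in greenhouse with sub-irrigation only; injury or control visually rated two weeks after treatment.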

Johnson grass (JG) = assay: Pre-emergence herbicide test; assay type: in vivo, Sorgum helepense; settings: Sorghum halepense, 336 h, two weeks after treatment
How it was run: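 Pots seeded one day before spraying; compound applied pre-emergence at 8 lbs/acre (or 4 lbs/acre) in 38 gallons/acre spray volume. Sub-irrigated in greenhouse; injury/control rated visually two weeks after treatment.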

Turnip (TP) [3] = assay: Pre-emergence herbicide test; assay type: in vivo, Brassica sp.; settings: Brassica rapa, pre-emergence, 336 h, two weeks after treatment
How it was run: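 Turnip (Brassica sp.) seeds were surface sown in 3' plastic pots of potting soil, covered with a thin layer of screened soil, and sub-irrigated in greenhouse trays. Pots were seeded one day ahead of treatment, sprayed pre-emergence under a hood with a fixed nozzle and moving belt, then kept in the greenhouse.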

Bean (BN) [4] = assay: Post-emergence herbicide test; assay type: in vivo, Phaseolus vulgaris var. Black Valentine; settings: Phaseolus vulgaris, post-emergence, 336 h, two weeks after treatment
How it was run: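 Snapbean (Phaseolus vulgaris var. Black Valentine) was tested post-emergence. Four seeds were sown in 3' plastic pots of potting soil at a depth equal to the seed diameter, then sub-irrigated in greenhouse trays. Planting dates were staggered so plants were sprayed once primary leaves had expanded, with the growing point at the primary leaf nodes.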

Corn (CN) = assay: Pre-emergence herbicide test; assay type: in vivo; settings: Zea mays, 336 h, two weeks after treatment
How it was run: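 Four corn seeds per pot, sown at seed-diameter depth one day before spraying, got soil surface treatment at 8 lbs/acre (4 lbs/acre formulations also prepared) in 38 gallons/acre. Pots were greenhouse-held with sub-irrigation only. Injury or control was scored visually two weeks after treatment.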

Cotton (CT) [5] = assay: Post-emergence herbicide test; assay type: in vivo, Gossypium hirsutum var. DPL smooth leaf; settings: Gossypium hirsutum, post-emergence, 336 h, two weeks after treatment
How it was run: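 Cotton (Gossypium hirsutum var. DPL smooth leaf) was grown in 3' plastic pots of potting soil, four seeds per pot, planted at a depth equal to the seed diameter and watered by sub-irrigation. At the stage of expanded cotyledons with the first true leaf 1' long, plants were sprayed post-emergence in a hood with a fixed nozzle over a moving belt. Percent control was rated visually two weeks later.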

Barnyard grass (BG) = assay: Pre-emergence herbicide test; assay type: in vivo; settings: Echinochloa crus-galli, 336 h, two weeks after treatment
How it was run: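 Barnyard grass surface-seeded in potting soil and sprayed pre-emergence one day after seeding, at 8 or 4 lb compound/acre in 38 gal/acre spray volume. Pots kept in greenhouse with sub-irrigation only; injury or control rated visually two weeks after treatment.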

Turnip (TP) [6] = assay: Post-emergence herbicide test; assay type: in vivo, Brassica sp.; settings: Brassica rapa, post-emergence, 336 h, two weeks after treatment
How it was run: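 A greenhouse post-emergence herbicide test on turnip. Seeds were sown on the surface of potting soil in 3' plastic pots, lightly covered with screened soil and watered from below. Planting was timed so seedlings had 1 or 2 true leaves above the cotyledons at spraying, done in a hood with a fixed nozzle. Control or injury was scored by eye after two weeks.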

Crabgrass (CG) [7] = assay: Post-emergence herbicide test; assay type: in vivo, Digitaria sanquinalis; settings: Digitaria sanguinalis, post-emergence, 336 h, two weeks after treatment
How it was run: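 Crabgrass (Digitaria sanquinalis) was surface seeded individually in 3' plastic pots of potting soil, covered with screened soil, and watered by sub-irrigation in greenhouse trays. Planting was staggered so seedlings reached the target stage together. Post-emergence sprays were applied in a hood with a removable belt and fixed nozzle, and control was visually rated two weeks after treatment.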

Crabgrass (CG) [8] = assay: Pre-emergence herbicide test; assay type: in vivo, Digitaria sanquinalis; settings: Digitaria sanguinalis, pre-emergence, 336 h, two weeks after treatment
How it was run: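 Crabgrass (Digitaria sanquinalis) was surface seeded in 3' plastic pots of potting soil, covered with screened soil, and watered by sub-irrigation in greenhouse trays. Pots were seeded one day before spraying in a hood with a moving belt and fixed nozzle. Plants stayed in the greenhouse on sub-irrigation, and pre-emergence control was rated visually two weeks after treatment.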

CCS(=O)(=O)c1nnc(N(C)C(=O)NC)s1 [Example 91]
40%: pest or weed control at 560.425 g/ha (Amaranth pigweed (PW); 0.5 lb/acre) | pest or weed control at 560.425 g/ha (Crabgrass (CG) [7]; 0.5 lb/acre)
80%: pest or weed control at 560.425 g/ha (Crabgrass (CG) [8]; 0.5 lb/acre)
60%: pest or weed control at 2241.7 g/ha (Johnson grass (JG); 2 lb/acre) | pest or weed control at 560.425 g/ha (Turnip (TP) [3]; 0.5 lb/acre) | pest or weed control at 1120.85 g/ha (Turnip (TP) [3]; 1 lb/acre) | pest or weed control at 4483.4 g/ha (Corn (CN); 4 lb/acre) | pest or weed control at 1120.85 g/ha (Barnyard grass (BG); 1 lb/acre) | pest or weed control at 1120.85 g/ha (Crabgrass (CG) [7]; 1 lb/acre)
90%: pest or weed control at 1120.85 g/ha (Amaranth pigweed (PW); 1 lb/acre) | pest or weed control at 4483.4 g/ha (Cotton (CT) [2]; 4 lb/acre) | pest or weed control at 2241.7 g/ha (Turnip (TP) [3]; 2 lb/acre) | pest or weed control at 2241.7 g/ha (Barnyard grass (BG); 2 lb/acre) | pest or weed control at 1120.85 g/ha (Crabgrass (CG) [8]; 1 lb/acre) | pest or weed control at 2241.7 g/ha (Crabgrass (CG) [8]; 2 lb/acre)
70%: pest or weed control at 1120.85 g/ha (Bean (BN) [1]; 1 lb/acre) | pest or weed control at 2241.7 g/ha (Bean (BN) [1]; 2 lb/acre) | pest or weed control (Crabgrass (CG) [7]; 2 lb/acre)
10%: pest or weed control at 560.425 g/ha (Bean (BN) [1]; 0.5 lb/acre) | pest or weed control at 560.425 g/ha (Corn (CN); 0.5 lb/acre)
50%: pest or weed control at 1120.85 g/ha (Cotton (CT) [2]; 1 lb/acre) | pest or weed control at 2241.7 g/ha (Cotton (CT) [2]; 2 lb/acre) | pest or weed control at 560.425 g/ha (Johnson grass (JG); 0.5 lb/acre) | pest or weed control at 1120.85 g/ha (Johnson grass (JG); 1 lb/acre) | pest or weed control at 1120.85 g/ha (Corn (CN); 1 lb/acre) | pest or weed control at 2241.7 g/ha (Corn (CN); 2 lb/acre)
30%: pest or weed control at 560.425 g/ha (Cotton (CT) [2]; 0.5 lb/acre) | pest or weed control at 560.425 g/ha (Barnyard grass (BG); 0.5 lb/acre)
100%: pest or weed control at 4483.4 g/ha (Bean (BN) [1]; 4 lb/acre) | pest or weed control at 2241.7 g/ha (Amaranth pigweed (PW); 2 lb/acre) | pest or weed control at 4483.4 g/ha (Amaranth pigweed (PW); 4 lb/acre) | pest or weed control at 4483.4 g/ha (Johnson grass (JG); 4 lb/acre) | pest or weed control at 4483.4 g/ha (Turnip (TP) [3]; 4 lb/acre) | pest or weed control at 560.425 g/ha (Bean (BN) [4]; 0.5 lb/acre) | pest or weed control at 1120.85 g/ha (Bean (BN) [4]; 1 lb/acre) | pest or weed control at 2241.7 g/ha (Bean (BN) [4]; 2 lb/acre) | pest or weed control at 4483.4 g/ha (Bean (BN) [4]; 4 lb/acre) | pest or weed control at 560.425 g/ha (Cotton (CT) [5]; 0.5 lb/acre) | pest or weed control at 1120.85 g/ha (Cotton (CT) [5]; 1 lb/acre) | pest or weed control at 2241.7 g/ha (Cotton (CT) [5]; 2 lb/acre) | pest or weed control at 4483.4 g/ha (Cotton (CT) [5]; 4 lb/acre) | pest or weed control at 4483.4 g/ha (Barnyard grass (BG); 4 lb/acre) | pest or weed control at 560.425 g/ha (Turnip (TP) [6]; 0.5 lb/acre) | pest or weed control at 1120.85 g/ha (Turnip (TP) [6]; 1 lb/acre) | pest or weed control at 2241.7 g/ha (Turnip (TP) [6]; 2 lb/acre) | pest or weed control at 4483.4 g/ha (Turnip (TP) [6]; 4 lb/acre) | pest or weed control at 4483.4 g/ha (Crabgrass (CG) [7]; 4 lb/acre) | pest or weed control at 4483.4 g/ha (Crabgrass (CG) [8]; 4 lb/acre)
